According to patent publication US20260327214A1, “1,3,4-OXADIAZOLE DERIVATIVE COMPOUNDS AS HISTONE DEACETYLASE 6 INHIBITOR, AND USES THEREOF” (CHONG KUN DANG PHARMACEUTICAL CORP., priority 2022, published 2026):
pIC50: −log10 of the molar value.

Experiments:
[1] = molecular target: T1, human recombinant HDAC1 (Homo sapiens, UniProt Q13547); assay: HDAC1 enzyme activity inhibition test (HDAC Fluorometric Drug Discovery Kit); format: biochemical; details: 30° C., 60 minutes, 10 μM substrate
T1 construct: purchased Enzo Life Science BML-SE456
T1 sequence (Q13547 whole entry): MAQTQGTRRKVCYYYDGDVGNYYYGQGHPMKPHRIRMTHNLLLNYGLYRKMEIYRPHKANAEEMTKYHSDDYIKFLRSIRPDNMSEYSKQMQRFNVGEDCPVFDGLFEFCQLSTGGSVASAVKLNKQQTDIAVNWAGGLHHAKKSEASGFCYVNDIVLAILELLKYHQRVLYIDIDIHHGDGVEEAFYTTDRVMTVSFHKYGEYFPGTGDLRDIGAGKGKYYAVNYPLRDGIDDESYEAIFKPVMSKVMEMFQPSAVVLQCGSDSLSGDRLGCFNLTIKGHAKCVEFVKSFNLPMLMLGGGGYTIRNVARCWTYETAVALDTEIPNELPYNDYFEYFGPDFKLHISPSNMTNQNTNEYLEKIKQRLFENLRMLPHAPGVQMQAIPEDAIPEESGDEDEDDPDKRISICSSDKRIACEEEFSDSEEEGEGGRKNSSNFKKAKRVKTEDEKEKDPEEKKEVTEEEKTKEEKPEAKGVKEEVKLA
Method in brief: (§1)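 IC50 derived from fluorescence (Ex 360, Em 460) following 30 min development with Developer II. Each reaction held 0.3 μg human recombinant HDAC1 or HDAC6, 10 μM Fluor de Lys SIRT1 substrate and 5-fold serially diluted compound, incubated 60 min at 30 °C.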

[2] = molecular target: T2, human recombinant HDAC6 (Homo sapiens, UniProt Q9UBN7); assay: HDAC6 enzyme activity inhibition test (HDAC Fluorometric Drug Discovery Kit); format: biochemical; details: for HDAC6 selectivity (fold): HDAC6 over HDAC1; for pIC50: human recombinant HDAC6, same protocol as HDAC1
T2 construct: purchased Calbiochem 382180
T2 sequence (Q9UBN7 1-1215): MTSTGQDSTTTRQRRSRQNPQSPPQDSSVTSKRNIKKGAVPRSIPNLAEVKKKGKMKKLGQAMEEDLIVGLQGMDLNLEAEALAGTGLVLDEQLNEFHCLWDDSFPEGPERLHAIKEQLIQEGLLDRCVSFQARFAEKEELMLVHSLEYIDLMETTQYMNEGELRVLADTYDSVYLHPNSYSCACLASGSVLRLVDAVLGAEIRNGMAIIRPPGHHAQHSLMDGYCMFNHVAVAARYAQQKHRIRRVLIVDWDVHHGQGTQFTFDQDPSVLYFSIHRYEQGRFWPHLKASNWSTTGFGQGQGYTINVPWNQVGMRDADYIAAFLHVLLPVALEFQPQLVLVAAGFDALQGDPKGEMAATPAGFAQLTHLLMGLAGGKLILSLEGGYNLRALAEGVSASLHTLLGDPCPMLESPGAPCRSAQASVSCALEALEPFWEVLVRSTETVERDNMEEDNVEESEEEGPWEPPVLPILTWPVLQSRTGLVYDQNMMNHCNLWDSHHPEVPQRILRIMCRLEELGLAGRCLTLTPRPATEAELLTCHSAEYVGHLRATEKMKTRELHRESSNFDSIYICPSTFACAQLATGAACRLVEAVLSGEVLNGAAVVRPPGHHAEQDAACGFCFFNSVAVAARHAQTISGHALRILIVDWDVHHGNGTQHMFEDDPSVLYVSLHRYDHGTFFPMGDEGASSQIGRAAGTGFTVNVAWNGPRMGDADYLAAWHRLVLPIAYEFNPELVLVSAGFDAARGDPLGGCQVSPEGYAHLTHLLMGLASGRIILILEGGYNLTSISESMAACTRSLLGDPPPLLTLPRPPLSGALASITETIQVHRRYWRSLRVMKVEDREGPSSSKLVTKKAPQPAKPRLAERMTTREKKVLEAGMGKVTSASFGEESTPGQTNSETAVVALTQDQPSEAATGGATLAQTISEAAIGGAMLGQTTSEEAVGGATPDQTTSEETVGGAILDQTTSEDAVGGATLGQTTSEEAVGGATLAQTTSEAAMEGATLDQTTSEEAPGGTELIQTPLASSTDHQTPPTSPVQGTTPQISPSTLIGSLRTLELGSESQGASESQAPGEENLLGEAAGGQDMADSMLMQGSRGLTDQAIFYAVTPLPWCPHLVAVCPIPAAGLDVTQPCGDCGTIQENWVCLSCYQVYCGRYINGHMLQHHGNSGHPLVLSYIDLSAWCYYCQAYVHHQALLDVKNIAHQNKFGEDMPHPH
Method in brief: as §1

Structure (SMILES)	pIC50 [1]	HDAC6 selectivity (fold) [2] [fold]	pIC50 [2]
CC1CCN(Cc2ccc(-c3nn(Cc4ncc(-c5nnc(C(F)F)o5)cc4F)c(=S)o3)cc2)CC1 [Compound 111, 3-[[5-[5-(difluoromethyl)-1,3,4-oxadiazol-2-yl]-3-fluoro-2-pyridyl]methyl]-5-[4-[(4-methyl-1-piperidyl)methyl]phenyl]-1,3,4-oxadiazol-2-thione]	< 4.30	549	7.04
CCN(CC)Cc1ccc(-c2nn(Cc3ncc(-c4nnc(C(F)F)o4)cc3F)c(=S)o2)s1 [Compound 129, 5-[5-(diethylaminomethyl)-2-thienyl]-3-[[5-[5-(difluoromethyl)-1,3,4-oxadiazol-2-yl]-3-fluoro-2-pyridyl]methyl]-1,3,4-oxadiazol-2-thione]	< 4.30	457	6.96
CN(C)Cc1cccc(-c2nn(Cc3ccc(-c4nnc(C(F)F)o4)cn3)c(=S)o2)c1 [Compound 84, 3-((5-(5-(difluoromethyl)-1,3,4-oxadiazol-2-yl)pyridin-2-yl)methyl)-5-(3-((dimethylamino)methyl)phenyl)-1,3,4-oxadiazol-2(3H)-thione]	< 4.30	497	7.00
O=c1oc(-c2ccc3ccccc3n2)nn1Cc1ccc(-c2nnc(C(F)F)o2)cn1 [Compound 42, 3-[[5-[5-(difluoromethyl)-1,3,4-oxadiazol-2-yl]-2-pyridyl]methyl]-5-(2-quinolyl)-1,3,4-oxadiazol-2-one]	< 4.30	975	7.29
Fc1c(-c2nn(Cc3ccc(-c4nnc(C(F)F)o4)cn3)c(=S)o2)cccc1C1CCN(C2CCC2)CC1 [Compound 81, 5-[3-(1-cyclobutyl-4-piperidyl)-2-fluoro-phenyl]-3-[[5-[5-(difluoromethyl)-1,3,4-oxadiazol-2-yl]-2-pyridyl]methyl]-1,3,4-oxadiazol-2-thione]	< 4.30	576	7.06
CN1CC(N2CCC(c3cccc(-c4nn(Cc5ccc(-c6nnc(C(F)F)o6)cn5)c(=O)o4)c3F)CC2)C1 [Compound 27, 3-[[5-[5-(difluoromethyl)-1,3,4-oxadiazol-2-yl]-2-pyridyl]methyl]-5-[2-fluoro-3-[1-(1-methylazetidin-3-yl)-4-piperidyl]phenyl]-1,3,4-oxadiazol-2-one]	< 4.30	420	6.92
Cn1ccc2ccc(-c3nn(Cc4ccc(-c5nnc(C(F)F)o5)cn4)c(=O)o3)cc21 [Compound 31, 3-[[5-[5-(difluoromethyl)-1,3,4-oxadiazol-2-yl]-2-pyridyl]methyl]-5-(1-methylindol-6-yl)-1,3,4-oxadiazol-2-one]	< 4.30	643	7.11
CN1CCC(c2cccc(-c3nn(Cc4ccc(-c5nnc(C(F)F)o5)cn4)c(=O)o3)c2)CC1 [Compound 8, 3-[[5-[5-(difluoromethyl)-1,3,4-oxadiazol-2-yl]-2-pyridyl]methyl]-5-[3-(1-methyl-4-piperidyl)phenyl]-1,3,4-oxadiazol-2-one]	< 4.30	546	7.04
CC(C)N1CCN(c2cccc(-c3nn(Cc4ccc(-c5nnc(C(F)F)o5)cn4)c(=O)o3)c2)CC1 [Compound 38, 3-[[5-[5-(difluoromethyl)-1,3,4-oxadiazol-2-yl]-2-pyridyl]methyl]-5-[3-(4-isopropylpiperazin-1-yl)phenyl]-1,3,4-oxadiazol-2-one]	< 4.30	988	7.30
O=c1oc(-c2cccc3[nH]ccc23)nn1Cc1ncc(-c2nnc(C(F)F)o2)cc1F [Compound 35, 3-[[5-[5-(difluoromethyl)-1,3,4-oxadiazol-2-yl]-3-fluoro-2-pyridyl]methyl]-5-(1H-indol-4-yl)-1,3,4-oxadiazol-2-one]	< 4.30	643	7.11
O=c1oc(-c2ccc(CN3CCCC3)cc2)nn1Cc1ccc(-c2nnc(C(F)F)o2)cn1 [Compound 2, 3-((5-(5-(difluoromethyl)-1,3,4-oxadiazol-2-yl)pyridin-2-yl)methyl)-5-(4-(pyrrolidin-1-ylmethyl)phenyl)-1,3,4-oxadiazol-2(3H)-one]	< 4.30	506	7.01
CCN(CC)Cc1ccc(-c2nn(Cc3ncc(-c4nnc(C(F)F)o4)cc3F)c(=S)o2)cc1 [Compound 109, 5-[4-(diethylaminomethyl)phenyl]-3-[[5-[5-(difluoromethyl)-1,3,4-oxadiazol-2-yl]-3-fluoro-2-pyridyl]methyl]-1,3,4-oxadiazol-2-thione]	< 4.30	1020	7.31
CC(=O)N1CC(N2CCC(c3cccc(-c4nn(Cc5ccc(-c6nnc(C(F)F)o6)cn5)c(=O)o4)c3F)CC2)C1 [Compound 28, 5-[3-[1-(1-acetylazetidine-3-yl)-4-piperidyl]-2-fluoro-phenyl]-3-[[5-[5-(difluoromethyl)-1,3,4-oxadiazol-2-yl]-2-pyridyl]methyl]-1,3,4-oxadiazol-2-one]	< 4.30	626	7.10
Fc1cc(-c2nnc(C(F)F)o2)cnc1Cn1nc(-c2ccccn2)oc1=S [Compound 47, 3-[[5-[5-(difluoromethyl)-1,3,4-oxadiazol-2-yl]-3-fluoro-2-pyridyl]methyl]-5-(2-pyridyl)-1,3,4-oxadiazol-2-thione]	< 4.30	1548	7.49
O=c1sc(-c2ccccc2)nn1Cc1ccc(-c2nnc(C(F)F)o2)cn1 [Compound 43, 3-[[5-[5-(difluoromethyl)-1,3,4-oxadiazol-2-yl]-2-pyridyl]methyl]-5-phenyl-1,3,4-thiadiazol-2-one]	< 4.30	359	6.86
Fc1cccc(-c2nn(Cc3ncc(-c4nnc(C(F)F)o4)cc3F)c(=S)o2)c1 [Compound 48, 3-[[5-[5-(difluoromethyl)-1,3,4-oxadiazol-2-yl]-3-fluoro-2-pyridyl]methyl]-5-(3-fluorophenyl)-1,3,4-oxadiazol-2-thione]	< 4.30	437	6.94
FC(F)c1nnc(-c2ccc(Cn3nc(-c4ccc(CN5CCCC5)cc4)oc3=S)nc2)o1 [Compound 93, 3-[[5-[5-(difluoromethyl)-1,3,4-oxadiazol-2-yl]-2-pyridyl]methyl]-5-[4-(pyrrolidin-1-ylmethyl)phenyl]-1,3,4-oxadiazol-2-thione]	< 4.30	2890	7.76
CCN(CC)Cc1cccc(-c2nn(Cc3ncc(-c4nnc(C(F)F)o4)cc3F)c(=S)o2)c1 [Compound 120, 5-[3-(diethylaminomethyl)phenyl]-3-[[5-[5-(difluoromethyl)-1,3,4-oxadiazol-2-yl]-3-fluoro-2-pyridyl]methyl]-1,3,4-oxadiazol-2-thione]	< 4.30	630	7.10
